Data as given in US20250388589A1, “TRICYCLIC HETEROCYCLIC DERIVATIVES, COMPOSITIONS AND USES THEREOF” (Danatlas Pharmaceuticals Co., Ltd., priority 2022, published 2025).
pIC50: −log10 of the molar value.

Tests used:
[1] = biological target: hPARG (C-terminal His6-tag) (Homo sapiens (Human), UniProt Q86W56); assay: PARG Enzymatic Activity Assay (HTRF); type: biochemical; conditions: hPARG 65 pM final, biotinylated-NAD ribosylated PARP1 8 nM final
Method: PARG Enzymatic Activity Assay HTRF assay was used to measure the ability of compounds to inhibit the activity of PARG in vitro. C-terminal His6-tag PARG expressed in E. coli was purified and stored at −80° C. in aliquots. Assay measurements were performed with 1×buffer comprising 50 mM Tris pH 7.4, 0.1 mg/mL BSA, 3 mM EDTA, 0.4 mM EGTA, 1 mM DTT, 50 mM KCl and 0.01% Tween 20.
Compounds dissolved in DMSO were plated into a 384-well assay plate (PerkinElmer, Catalog #: 6008280) in duplicate using a dispenser (Labcyte, Echo 665), and tested on a 10-point 4-fold serial dilution. Add 5 L Enzyme mix [hPARG (C-terminal His6-tag, 4.2 μM), 65 pM final] to the test wells. The plates were covered and left to incubate for 60 minutes at RT before the addition of 5 L substrate mix [biotinylated-NAD ribosylated PARP1 (6.1 μM), 8 nM final] to initiate reaction. After incubating 10 minutes at RT, add 2.5 L Streptavidin-Eu cryptate (Cisbio, Catalog #: 610SAKLA) and 2.5 L Mab anti 6HIS-XL665 (Cisbio, Catalog #: 61HISXLA) to the plate, and incubate for 60 minutes at RT. Read on a multimode plate reader (PerkinElmer, Envision 2015) in time-resolved fluorescence (TRF) mode, with excitation at 337 nm and emission at both 620 nm and 665 nm. Average HTRF signal of high control (Wells with 1% DMSO) was calculated and as Vehicle Control (VC). Average HTRF signal of low control (no Enzyme) was calculated and as Positive control (PC).
(§1) IC50 values were determined by fitting the data to the standard 4 parameters with Hill Slope using GraphPad Prism software.

Kuramochi cell line = assay: Cell Viability Assay (Cell Titer-Glo, 7 days); type: cell-based; conditions: 168 h, Kuramochi cells, 7 days incubation, read-out: PARG Cell viability (IC50)
Method: Cell viability studies were conducted in Kuramochi cell line. Cells were maintained in RPMI (Hyclone, Catalog #: SH3080901B) supplemented with 10% v/v FBS (AusGeneX, Catalog #: FBS500-S), 1% v/v Penicillin Streptomycin (Gibco, Catalog #: 15140122). Cells were seeded in 96-well plates (PerkinElmer, Catalog #: 6005680) at a density of 400 cells/well. Compounds dissolved in DMSO were plated in duplicate using a multichannel pipette, and tested on a 9-point 3-fold serial dilution. Cells were incubated for 7 days in a 37° C. active humidified incubator at 5% CO2. Cell viability was measured using the Cell Titer-Glo reagent (Promega, Catalog #: G7573) as manufacturer's instructions. Luminescence signal was measured with a multimode plate reader (Perkin Elmer, Envision 2105 or BMG, ClarioStar Plus). Average values of DMSO treated wells in a plate was calculated and as high control (HC). Average values of only medium in a plate was calculated and as low control (LC)
as §1

Sequence of hPARG (C-terminal His6-tag) (Q86W56 whole entry): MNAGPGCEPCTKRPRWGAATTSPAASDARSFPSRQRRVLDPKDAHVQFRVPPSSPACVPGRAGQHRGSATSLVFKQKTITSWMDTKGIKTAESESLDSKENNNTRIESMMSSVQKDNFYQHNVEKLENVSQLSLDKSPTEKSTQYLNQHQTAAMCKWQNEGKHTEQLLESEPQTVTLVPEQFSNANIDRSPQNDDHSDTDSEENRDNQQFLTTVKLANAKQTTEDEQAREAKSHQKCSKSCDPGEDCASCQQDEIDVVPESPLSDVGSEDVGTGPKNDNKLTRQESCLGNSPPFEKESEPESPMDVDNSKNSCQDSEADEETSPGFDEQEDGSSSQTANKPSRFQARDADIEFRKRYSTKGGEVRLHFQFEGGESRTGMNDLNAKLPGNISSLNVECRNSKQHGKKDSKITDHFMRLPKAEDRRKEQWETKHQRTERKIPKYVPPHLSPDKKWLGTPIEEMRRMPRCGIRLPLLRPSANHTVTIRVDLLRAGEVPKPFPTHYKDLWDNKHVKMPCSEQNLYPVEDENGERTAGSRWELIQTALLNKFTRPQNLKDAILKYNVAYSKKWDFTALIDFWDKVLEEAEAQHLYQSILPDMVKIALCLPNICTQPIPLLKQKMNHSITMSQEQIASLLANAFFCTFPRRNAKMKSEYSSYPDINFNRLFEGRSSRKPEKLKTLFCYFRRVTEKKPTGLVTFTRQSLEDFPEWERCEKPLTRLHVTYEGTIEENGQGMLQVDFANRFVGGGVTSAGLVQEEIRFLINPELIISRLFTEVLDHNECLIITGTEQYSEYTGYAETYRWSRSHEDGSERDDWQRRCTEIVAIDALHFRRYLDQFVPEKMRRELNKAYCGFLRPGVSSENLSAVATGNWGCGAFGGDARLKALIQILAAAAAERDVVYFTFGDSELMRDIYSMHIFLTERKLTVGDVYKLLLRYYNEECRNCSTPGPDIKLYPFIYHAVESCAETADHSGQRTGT

Structure (SMILES)	pIC50 [1]	pIC50 (Kuramochi cell line)
CC(C)[S+]([O-])N1CCN(c2ncnc3c2c2ccc(S(=O)(=O)NC4(C#N)CC4)cc2n3-c2nnc(C(F)F)s2)CC1 (centres unmarked) [Example 69, N-(1-Cyanocyclopropyl)-9-(5-(difluoromethyl)-1,3,4-thiadiazol-2-yl)-4-(4-(isopropylsulfinyl)piperazin-1-yl)-9H-pyrimido[4,5-b]indole-7-sulfonamide]	> 7.00	> 7.00
CC(C)C(=O)N1C2CCC1CN(c1ncnc3c1c1ccc(S(=O)(=O)NC4(C#N)CC4)cc1n3-c1nnc(C(F)F)s1)C2 [Example 24, N-(1-Cyanocyclopropyl)-9-[5-(difluoromethyl)-1,3,4-thiadiazol-2-yl]-4-[8-(2-methylpropanoyl)-3,8-diazabicyclo[3.2.1]octan-3-yl]pyrimido[4,5-b]indole-7-sulfonamide]	> 7.00	6.00 to 7.00
N#CC1(NS(=O)(=O)c2ccc3c4c(C5CCN(C(=O)N6CC(O)C6)CC5)ncnc4n(-c4nnc(C(F)F)s4)c3c2)CC1 [Example 138, N-(1-cyanocyclo-propyl)-9-(5-(difluoromethyl)-1,3,4-thiadiazol-2-yl)-4-(1-(3-hydroxy-azetidine-1-carbonyl)piperidin-4-yl)-9H-pyrimido [4,5-b]indole-7-sulfonamide]	> 7.00	6.00 to 7.00
COCC(=O)N1CCC(c2ncnc3c2c2ccc(S(=O)(=O)NC4(C#N)CC4)cc2n3-c2nnc(C(F)F)s2)CC1 [Example 117, N-(1-cyanocyclopropyl)-9-(5-(difluoromethyl)-1,3,4-thiadiazol-2-yl)-4-(1-(2-methoxyacetyl)piperidin-4-yl)-9H-pyrimido[4,5-b]indole-7-sulfonamide]	> 7.00	> 7.00
CC1(C(=O)N2CCN(c3ncnc4c3c3ccc(S(=O)(=O)NC5(C#N)CC5)cc3n4-c3nnc(C(F)F)s3)CC2)CCC1 [Example 4, N-(1-Cyanocyclopropyl)-9-(5-(difluoromethyl)-1,3,4-thiadiazol-2-yl)-4-(4-(1-methylcyclobutane-1-carbonyl)piperazin-1-yl)-9H-pyrimido[4,5-b]indole-7-sulfonamide]	> 7.00	6.00 to 7.00
CO[C@H]1CCN(C(=O)N2CCC(c3ncnc4c3c3ccc(S(=O)(=O)NC5(C#N)CC5)cc3n4-c3nnc(C(F)F)s3)CC2)C1 [Example 134, (S)—N-(1-Cyanocyclopropyl)-9-(5-(difluoromethyl)-1,3,4-thiadiazol-2-yl)-4-(1-(3-methoxypyrrolidine-1-carbonyl)piperidin-4-yl)-9H-pyrimido[4,5-b]indole-7-sulfonamide]	> 7.00	> 7.00
CC(C)C(=O)N1CCC(c2ncnc3c2c2cc(F)c(S(=O)(=O)NC4(C)CC4)cc2n3-c2nnc(C(F)F)s2)CC1 [Example 148, 9-(5-(Difluoromethyl)-1,3,4-thiadiazol-2-yl)-6-fluoro-4-(1-isobutyrylpiperidin-4-yl)-N-(1-methylcyclopropyl)-9H-pyrimido[4,5-b]indole-7-sulfonamide]	> 7.00	> 7.00
CN(C)C(=O)c1ccc(-c2ncnc3c2c2ccc(S(=O)(=O)NC4(C#N)CC4)cc2n3-c2nnc(C(F)F)s2)cc1 [Example 43, 4-(7-(N-(1-Cyanocyclopropyl)sulfamoyl)-9-(5-(difluoromethyl)-1,3,4-thiadiazol-2-yl)-9H-pyrimido[4,5-b]indol-4-yl)-N,N-dimethylbenzamide]	> 7.00	6.00 to 7.00
CC(C)C(=O)N1CCC(c2ncnc3c2c2ccc(S(=O)(=O)NC4(C#N)CC4)cc2n3-c2nnc(C(F)F)s2)C[C@@H]1C (stereo partly drawn) [Example 151, N-(1-Cyanocyclopropyl)-9-(5-(difluoromethyl)-1,3,4-thiadiazol-2-yl)-4-((2S)-1-isobutyryl-2-methylpiperidin-4-yl)-9H-pyrimido[4,5-b]indole-7-sulfonamide]	> 7.00	> 7.00
C[C@H]1CC(c2ncnc3c2c2ccc(S(=O)(=O)NC4(C#N)CC4)cc2n3-c2nnc(C(F)F)s2)CCN1 (stereo partly drawn) [Example 150, N-(1-Cyanocyclopropyl)-9-(5-(difluoromethyl)-1,3,4-thiadiazol-2-yl)-4-((2S)-2-methylpiperidin-4-yl)-9H-pyrimido[4,5-b]indole-7-sulfonamide]	> 7.00	6.00 to 7.00
CC1(C(=O)N2CC3CN(c4ncnc5c4c4ccc(S(=O)(=O)NC6(C#N)CC6)cc4n5-c4nnc(C(F)F)s4)CC3C2)CC1 (centres unmarked) [Example 36, N-(1-Cyanocyclopropyl)-9-(5-(difluoromethyl)-1,3,4-thiadiazol-2-yl)-4-(5-(1-methylcyclopropane-1-carbonyl)hexahydropyrrolo[3,4-c]pyrrol-2(1H)-yl)-9H-pyrimido[4,5-b]indole-7-sulfonamide]	> 7.00	6.00 to 7.00
N#CC1(NS(=O)(=O)c2ccc3c4c(C5CCN(C(=O)N6CC[C@@H](O)C6)CC5)ncnc4n(-c4nnc(C(F)F)s4)c3c2)CC1 [Example 129, (R)—N-(1-Cyanocyclopropyl)-9-(5-(difluoromethyl)-1,3,4-thiadiazol-2-yl)-4-(1-(3-hydroxypyrrolidine-1-carbonyl)piperidin-4-yl)-9H-pyrimido[4,5-b]indole-7-sulfonamide]	> 7.00	6.00 to 7.00

The next lines start with results.

pIC50 [1]	Structure (SMILES)	pIC50 (Kuramochi cell line)
> 7.00	CN(C)C(=O)N1CCC(c2ncnc3c2c2ccc(S(=O)(=O)NC4(C)CC4)cc2n3-c2nnc(C(F)F)s2)CC1 [Example 153, 4-(9-(5-(Difluoromethyl)-1,3,4-thiadiazol-2-yl)-7-(N-(1-methylcyclopropyl)sulfamoyl)-9H-pyrimido[4,5-b]indol-4-yl)-N,N-dimethylpiperidine-1-carboxamide]	> 7.00
> 7.00	C[C@@H]1COCCN1c1ncnc2c1c1ccc(S(=O)(=O)NC3(C#N)CC3)cc1n2-c1nnc(C(F)F)s1 [Example 199, (R)—N-(1-Cyanocyclopropyl)-9-(5-(difluoromethyl)-1,3,4-thiadiazol-2-yl)-4-(3-methylmorpholino)-9H-pyrimido[4,5-b]indole-7-sulfonamide]	> 7.00
6.00 to 7.00	Cc1nnc(-n2c3cc(S(=O)(=O)NC4(C#N)CC4)ccc3c3c(N4CCN(C(=O)C5CC5)CC4)ncnc32)s1 [Example 185, N-(1-Cyanocyclopropyl)-4-(4-(cyclopropanecarbonyl)piperazin-1-yl)-9-(5-methyl-1,3,4-thiadiazol-2-yl)-9H-pyrimido[4,5-b]indole-7-sulfonamide]	6.00 to 7.00
> 7.00	CCCN1CCN(c2ncnc3c2c2ccc(S(=O)(=O)NC4(C#N)CC4)cc2n3-c2nnc(C(F)F)s2)C[C@@H]1C [Example 157, (S)-N-(1-cyanocyclopropyl)-9-(5-(difluoromethyl)-1,3,4-thiadiazol-2-yl)-4-(3-methyl-4-propylpiperazin-1-yl)-9H-pyrimido[4,5-b]indole-7-sulfonamide]	> 7.00
> 7.00	CO[C@H]1CCN(c2ncnc3c2c2ccc(S(=O)(=O)NC4(C#N)CC4)cc2n3-c2nnc(C(F)F)s2)C[C@@H]1F [Example 172, N-(1-cyanocyclopropyl)-9-(5-(difluoromethyl)-1,3,4-thiadiazol-2-yl)-4-((3S,4S)-3-fluoro-4-methoxypiperidin-1-yl)-9H-pyrimido[4,5-b]indole-7-sulfonamide]	> 7.00
> 7.00	N#CC1(NS(=O)(=O)c2ccc3c4c(N5CCCOCC5)ncnc4n(-c4nnc(C(F)F)s4)c3c2)CC1 [Example 170, N-(1-Cyanocyclopropyl)-9-(5-(difluoromethyl)-1,3,4-thiadiazol-2-yl)-4-(1,4-oxazepan-4-yl)-9H-pyrimido[4,5-b]indole-7-sulfonamide]	> 7.00
> 7.00	CC(C)C(=O)N1[C@H](C)CN(c2ncnc3c2c2ccc(S(=O)(=O)NC4(C)CC4)cc2n3-c2nnc(C(F)F)s2)C[C@@H]1C [Example 190, 9-(5-(Difluoromethyl)-1,3,4-thiadiazol-2-yl)-4-((3R,5S)-4-isobutyryl-3,5-dimethylpiperazin-1-yl)-N-(1-methylcyclopropyl)-9H-pyrimido[4,5-b]indole-7-sulfonamide]	> 7.00
